In publication PMC12059162 (Scientific Reports, 2025):
Marks after values point to notes of the source that are not given here.

Tests used:
PANC-1 cells [1] = assay: Annexin-V/7AAD early and late apoptosis flow cytometry; assay type: cell-based, human; details: PANC-1, 0.5 µM, 72 h; for Ratio of late apoptotic cells: control 0.9%; for Ratio of AnnexinV+ and 7AAD- (early apoptotic) cells: control 21.1%
Procedure: For apoptosis measurements, Annexin-V positive/7AAD (7-Aminoactinomycin D) negative, early apoptotic and Annexin-V/ 7AAD double positive, late apoptotic cells were differentiated using a BD FACSCalibur (BD FACSCalibur, Becton-Dickinson, San Jose, CA, USA) flow cytometer[49],[50]. […] After 24, 48, and 72 h treatment, cells were harvested with 300 µL TrypLE (Sigma Ltd. St. Louis, MO, USA). Fresh cell culture medium was then added to stop the effect of TrypLE and the harvested cells were centrifuged for 5 min (300 g). Then, the supernatant was removed, and cells were resuspended in 300 µL of Annexin binding buffer (Sony Biotechnology, Weybridge, UK). For labelling, 3–3 µL of Annexin-V-FITC (Sony Biotechnology, Weybridge, UK) and 7AAD (Sony Biotechnology, Weybridge, UK) were added, followed by 10 min incubation at room temperature in the dark. For flow cytometric analysis (BD FACSCalibur, Becton–Dickinson, San Jose, CA, USA), a minimum of 10^4 cells/sample was measured. Annexin-V was detected using the FL-1 channel (530/30), and 7AAD was detected using the FL-3 channel (670 LP). In each treatment group, 3 parallel samples were analysed. The results were evaluated using Flowing Software 2.5.1 (Turku Centre of Biotechnology, Turku, Finland).

PANC-1 cells [2] = assay: Holographic microscopy morphometry (HoloMonitor M4); assay type: cell-based, human; details: 72 h
Procedure: To follow the morphometric changes, a holographic transmission microscope (HoloMonitor M4; Phase Holographic Imaging AB, Lund, Sweden) was used, which uses a laser to produce 3D images of the cells[51],[52]. This […] imaging technique allows us to monitor cell morphological changes in real-time. First, the cells were seeded at a concentration of 3.5 × 10^5 cells/flask/4000 µL cell culture medium. […] At least 5 images were taken from each culture dish, taking care to assess different fields of view. These images were evaluated using the microscope software (Hstudio M4). We assessed the average area and the average optical thickness of the cells.

MIA PaCa-2 cells [3] = assay: alamarBlue cell viability; details: Homo sapiens, MIA PaCa-2, 72 h; for viability at 0.5 µM / viability at 10 µM / viability at 25 µM: read-out: Viability (%) after 72-h treatment
A2058 cells = assay: alamarBlue cell viability; details: Homo sapiens, A2058, 72 h; for IC50: read-out: IC50 values (μM) 72 hours; for viability at 0.5 µM / viability at 10 µM / viability at 25 µM: read-out: Viability (%) after 72-h treatment
EBC-1 cells = assay: alamarBlue cell viability; details: for viability at 0.5 µM: read-out: Viability (%) after 72-h treatment, EBC-1, 0.5 μM, 72 h, mean ± SD (n = 3); for viability at 10 µM: read-out: Viability (%) after 72-h treatment, EBC-1, 10 μM, 72 h, mean ± SD (n = 3); for viability at 25 µM: read-out: Viability (%) after 72-h treatment, EBC-1, 25 μM, 72 h, mean ± SD (n = 3)
COLO-205 cells = assay: alamarBlue cell viability; details: Homo sapiens, COLO 205, 72 h; for viability at 0.5 µM / viability at 10 µM / viability at 25 µM: read-out: Viability (%) after 72-h treatment
pro-caspase-3 = assay: Human Apoptosis Array in PANC-1 cells; details: PANC-1, 0.5 µM, 72 h
FADD = assay: Human Apoptosis Array in PANC-1 cells; details: PANC-1, 0.5 µM, 72 h
DR4 = assay: Human Apoptosis Array in PANC-1 cells; details: PANC-1, 0.5 µM, 72 h
phospho-p53 (S392) = assay: Human Apoptosis Array in PANC-1 cells; details: PANC-1, 0.5 µM, 72 h
phospho-p53 (S46) = assay: Human Apoptosis Array in PANC-1 cells; details: PANC-1, 0.5 µM, 72 h
phospho-p53 (S15) = assay: Human Apoptosis Array in PANC-1 cells; details: PANC-1, 0.5 µM, 72 h
cIAP-1 = assay: Human Apoptosis Array in PANC-1 cells; details: PANC-1, 0.5 µM, 72 h
HSP60 = assay: Human Apoptosis Array in PANC-1 cells; details: PANC-1, 0.5 µM, 72 h
[4] = alamarBlue cell viability, healthy cells; details: human, NHDF cells
PANC-1 cells [5] = assay: Cell cycle analysis (PI, flow cytometry); details: for Effect on cell cycle: PANC-1, 0.5 µM, 48 h; for Increase in cell number in the G2/M phase: PANC-1, 10 and 25 µM, 72 h
MIA PaCa-2 cells [6] = assay: Cell cycle analysis (PI, flow cytometry); details: MIA PaCa-2, 0.5 µM; for Effect on cell cycle: 48 h
[7] = alamarBlue cell viability, cardiotoxicity; details: mouse, HL-1 cardiomyocytes
PANC-1 cells [8] = assay: xCELLigence SP impedimetric cell viability; details: for IC50 / viability at 0.5 µM / viability at 10 µM / viability at 25 µM: Homo sapiens, PANC-1, 72 h; for IC50: read-out: IC50 values (μM) 72 hours; for viability at 0.5 µM: read-out: Viability (%) after 72-h treatment, PANC-1, 0.5 μM, 72 h, mean ± SD (n = 3); for viability at 10 µM: read-out: Viability (%) after 72-h treatment, PANC-1, 10 μM, 72 h, mean ± SD (n = 3); for viability at 25 µM: read-out: Viability (%) after 72-h treatment, PANC-1, 25 μM, 72 h, mean ± SD (n = 3)
DR5 = assay: qPCR apoptotic gene expression in PANC-1 cells; details: PANC-1, 25 µM
p53 = assay: qPCR apoptotic gene expression in PANC-1 cells; details: PANC-1, 25 µM, normalised to DMSO control
TRAIL = assay: qPCR apoptotic gene expression in PANC-1 cells; details: PANC-1, 25 µM
SMAC = assay: Human Apoptosis Array in PANC-1 cells; details: PANC-1, 0.5 µM, 72 h
[9] = read-out: IC50 values (μM) 72 hours

## O=C1C2=C(CCN(Cc3ccccc3)C2)N2CCN=C2N1Cc1ccc(F)cc1 [TBP-134]
PANC-1 cells [1]
  Early apoptotic cells, fold increase: 2.1 fold
  Late apoptotic cells, fold increase: 4.2 fold
  Ratio of late apoptotic cells: 3.8%
  Ratio of AnnexinV+ and 7AAD- (early apoptotic) cells: 43.8%
PANC-1 cells [2]; PANC-1, 25 µM
  Average cell area: 376 µm^2
  Average cell area, fold decrease vs DMSO: 1.7 fold
MIA PaCa-2 cells [3]; [9]
  IC50: 0.67 µM
MIA PaCa-2 cells [3]
  viability at 0.5 µM: 48.9 ± 2.9%
  viability at 10 µM: 65 ± 4.9%
  viability at 25 µM: 59 ± 5.5%
A2058 cells
  IC50: 0.34 µM
  viability at 0.5 µM: 51.4 ± 2.4%
  viability at 10 µM: 47.7 ± 3.5%
  viability at 25 µM: 44.7 ± 2.8%
EBC-1 cells; EBC-1, 0.5 μM, 72 h, mean ± SD (n = 3), 0.5 µM
  Viability (%) after 72-h treatment: 52.3 ± 1.5^z %
EBC-1 cells; Homo sapiens, EBC-1, 72 h
  viability at 0.5 µM: 52.2%
  viability at 10 µM: 51.7 ± 0.7%
  viability at 25 µM: 50.5 ± 2%
COLO-205 cells; [9]
  IC50: 0.25 µM
COLO-205 cells
  viability at 0.5 µM: 45.5 ± 1.3%
  viability at 10 µM: 48.8 ± 1.6%
  viability at 25 µM: 54.3 ± 0.6%
pro-caspase-3
  pro-caspase-3 protein level: decrease
FADD
  FADD protein level: decrease
DR4
  DR4 protein level: significant increase
phospho-p53 (S392)
  phospho-p53 (S392) protein level: decrease
phospho-p53 (S46)
  phospho-p53 (S46) protein level: decrease
phospho-p53 (S15)
  phospho-p53 (S15) protein level: decrease
cIAP-1
  cIAP-1 protein level: undetectable
HSP60
  HSP60 protein level: significant increase
[4]
  viability at 72 h, 0.5 µM: 61.5 ± 0.5%
  viability at 72 h, 10 µM: 46.2 ± 3.4%
  viability at 72 h, 25 µM: 48.3 ± 1.2%
PANC-1 cells [5]
  Effect on cell cycle: strong G2/M phase arrest
  Increase in cell number in the G2/M phase: 2.2 fold
MIA PaCa-2 cells [6]
  Effect on cell cycle: strong G2/M phase arrest
MIA PaCa-2 cells [6]; 72 h, control 5.6%
  subG1 phase (percentage of cells): 20.8%
[7]
  viability at 72 h, 0.5 µM: 89.9 ± 5.2%
  viability at 72 h, 10 µM: 88.4 ± 5%
  viability at 72 h, 25 µM: 82 ± 2.3%
PANC-1 cells [8]
  IC50: 0.35 µM
  viability at 0.5 µM: 13.4%
  viability at 10 µM: 7.4 ± 0.3%
  viability at 25 µM: 6.1 ± 0.9%
PANC-1 cells [8]; PANC-1, 0.5 μM, 72 h, mean ± SD (n = 3), 0.5 µM
  Viability (%) after 72-h treatment: 13.2 ± 1.4^z %
DR5; 12 h, normalised to DMSO control
  DR5 mRNA expression: 2.3 fold
p53; 48 h
  p53 mRNA expression: 3.7 fold
TRAIL; any of the time points (3-48 h)
  TRAIL induction (mRNA): not detected

## O=C1C2=C(CCN(Cc3ccccc3)C2)N2CCN=C2N1Cc1cccc(F)c1 [TBP-135]
PANC-1 cells [1]
  Early apoptotic cells, fold increase: 2.5 fold
  Late apoptotic cells, fold increase: 3.5 fold
  Ratio of late apoptotic cells: 3.2%
  Ratio of AnnexinV+ and 7AAD- (early apoptotic) cells: 53.5%
PANC-1 cells [2]; PANC-1, 0.5 µM
  Average cell area, fold decrease vs DMSO: 1.9 fold
  Average optical thickness, fold increase vs DMSO: 4.1 fold
PANC-1 cells [2]; PANC-1, 0.5 µM, DMSO 1.45 μm
  Average optical thickness: 5.9 μm
PANC-1 cells [2]; PANC-1, 0.5 µM, DMSO 630 µm^2
  Average cell area: 338.5 µm^2
MIA PaCa-2 cells [3]
  viability at 0.5 µM: 63.5 ± 2.6%
  viability at 10 µM: 62.7 ± 7.8%
  viability at 25 µM: 65.5 ± 7.9%
A2058 cells
  IC50: 1.75 µM
  viability at 0.5 µM: 74.9 ± 1.1%
  viability at 10 µM: 47 ± 4.7%
  viability at 25 µM: 46.8 ± 2.9%
EBC-1 cells; Homo sapiens, EBC-1, 72 h, read-out: IC50 values (μM) 72 hours
  IC50: 2.5 µM
EBC-1 cells; Homo sapiens, EBC-1, 72 h
  viability at 0.5 µM: 66.6 ± 4.1%
  viability at 10 µM: 71.8 ± 31.1%
  viability at 25 µM: 48 ± 4%
COLO-205 cells
  viability at 0.5 µM: 74.7 ± 0.6%
  viability at 10 µM: 52.6 ± 4.1%
  viability at 25 µM: 54.2 ± 3.2%
pro-caspase-3
  pro-caspase-3 protein level: significantly increased
DR4
  DR4 protein level: significantly increased
SMAC
  SMAC protein level: significantly increased
phospho-p53 (S46)
  phospho-p53 (S46) protein level: significantly increased
phospho-p53 (S15)
  phospho-p53 (S15) protein level: significantly increased
cIAP-1
  cIAP-1 protein level: significantly increased
HSP60
  HSP60 protein level: significantly increased
[4]
  viability at 72 h, 0.37 µM: 111 ± 2.9%
  viability at 72 h, 8.6 µM: 65.9 ± 1.8%
  viability at 72 h, 25 µM: 71.4 ± 12.3%
PANC-1 cells [5]
  Effect on cell cycle: G1 phase block
  Increase in cell number in the G2/M phase: 2.2 fold
MIA PaCa-2 cells [6]
  Effect on cell cycle: did not affect
[7]
  viability at 72 h, 0.5 µM: 98.8 ± 1.5%
  viability at 72 h, 10 µM: 86.8 ± 3.2%
  viability at 72 h, 25 µM: 88.3 ± 2.8%
PANC-1 cells [8]
  IC50: 1.8 µM
  viability at 0.5 µM: 106 ± 2.4%
  viability at 10 µM: 8.8 ± 0.1%
  viability at 25 µM: 9.2 ± 4.6%
DR5; 3 h
  DR5 mRNA expression: significantly upregulated
DR5; 24 h, normalised to DMSO control
  DR5 mRNA expression: 5.9 fold
p53; 24 h
  p53 mRNA expression: 2.9 fold
TRAIL; 3 h, normalised to DMSO control
  TRAIL mRNA expression: 2.4 fold
